ChEMBL document CHEMBL2040776, “Docking, synthesis and pharmacological activity of novel urea-derivatives designed as p38 MAPK inhibitors” (Eur J Med Chem, 2012)
pIC50: −log10 of the molar value. Calls of active or inactive are those of the source. No cut-off for these calls is given here.

Key:
[1] = tested on: Rattus norvegicus; assay: Antihypernociceptive activity in Wistar rat assessed as inhibition of capsaicin-induced thermal hypernociception by measuring paw withdrawal latency at 100 umol/kg, po administered 1 hr before capsaicin challenge measured after 10 mins; format: functional, organism-based
[2] = target: MAP kinase p38 (Mus musculus, UniProt P47811+O08911+Q9WUI1+Q9Z1B7); assay: Inhibition of LPS-induced p38 MAPK activation in BALB/c mouse peritoneal macrophages
[3] = Cytotoxicity against BALB/c mouse peritoneal macrophages after 20 hrs by MTT assay; format: cell-based; conditions: Peritoneal macrophage cell
[4] = tested on: Rattus norvegicus; assay: Antiinflammatory activity in Wistar rat assessed as inhibition of carrageenan-induced paw oedema at 100 umol/kg, po after 1 hr; format: functional, organism-based
[5] = tested on: Rattus norvegicus; assay: Antiinflammatory activity in Wistar rat assessed as inhibition of carrageenan-induced paw oedema at 100 umol/kg, po after 3 hrs; format: functional, organism-based
[6] = Antiinflammatory activity in BALB/c mouse peritoneal macrophages assessed as inhibition of LPS-induced TNFalpha production treated 1 hr before LPS challenge measured after 24 hrs by ELISA; format: functional, cell-based; conditions: Peritoneal macrophage cell
[7] = Antiinflammatory activity in BALB/c mouse peritoneal macrophages assessed as inhibition of LPS-induced TNFalpha production at 100 uM treated 1 hr before LPS challenge measured after 24 hrs by ELISA; format: functional; conditions: Peritoneal macrophage cell
[8] = tested on: Mus musculus; assay: Antihypernociceptive activity in po dosed BALB/c mouse methylated bovine serum albumin-induced arthritis model assessed as paw withdrawal latency administered 30 mins before mBSA challenge followed by second dose after 7 hrs by electronic Von Frey method; format: functional, organism-based

Structure (SMILES)	inhibition [1]	pIC50 [3]	pIC50 [6]	also measured
CCOC(=O)c1cc2cc3c(cc2nc1NC(=O)Nc1ccc(Br)cc1)OCO3	Active			
CCOC(=O)c1cc2cc3c(cc2nc1NC(=O)NC1CCCCC1)OCO3	Active	4.33	4.26	IC50 [2]: 14 µM; inhibition [4]: Active; inhibition [5]: Active; inhibition at 100 µM [7]: 50%; Activity [8]: Dose-dependent effect
CCOC(=O)c1cc2cc3c(cc2nc1NC(=O)Nc1ccccc1)OCO3		4.37		
CCOC(=O)c1cc2cc3c(cc2nc1NC(=O)Nc1ccc([N+](=O)[O-])cc1)OCO3	Active			
C[S+]([O-])c1ccc(-c2nc(-c3ccc(F)cc3)c(-c3ccncc3)[nH]2)cc1 (stereo not drawn) [SB-203580]	Active		6.66	
